Values belong to the compound of their own block, whether it stands above or below them.
Legend:
BTK [1] = target: T1, BTK (Homo sapiens, UniProt Q06187); experiment: Library screen of BTK abundance by Western blot in K562 or Mino cells; format: cell-based; design: endogenous in cells; host or cells: Mino (ATCC CRL-3000), Ramos (ATCC CRL-1596), K562 (NCI-60); details: 1 μM compound, 24 h
Experimental: We incubated K562 or Mino cells with 1 μM of the compounds for 24 h and measured the abundance of BTK by Western blot (Supporting Figure 1). […] On the basis of compound RC-1 we synthesized additional compounds (Figure 1), RC-2 with a CH2 group replacing the oxygen nearest the β-carbon, their analogous acrylamides IR-1 and IR-2, and the noncovalent analogue NC-1. We also synthesized the cyanoacrylamide RC-3 (Figure 1), replacing the Cα hydrogens with methyl groups. Similar dimethylated cyanoacrylamides were reported to have improved cellular permeability.[34]
Ramos (ATCC, CRL-1596), Mino (ATCC, CRL-3000), or K562 (NCI-60) cell lines were counted and diluted to 10^6 cell/mL, using 1 mL per well in a 24-well plate, and U2OS (ATCC HTB-96) cells overexpressing human BTK WT or C481S mutant were grown using 2 mL in a six-well plate (see Supporting Information). […] Lysates were prepared as previously described,[29] and samples were measured for total protein quantification by bicinchoninic acid (BCA) assay (#23225 ThermoFisher Scientific) supplemented with 4× loading buffer including 20 mM DTT, heated to 70 °C for 10 min, loaded into 4% SDS-PAGE gel, run for 45 min at 140 mV, then transferred into a nitrocellulose membrane (Biorad) using a Trans-Blot Turbo transfer system (Biorad). […]

wild-type BTK = wild-type BTK (Homo sapiens, UniProt Q06187); experiment: In vitro kinase activity assay, wild-type BTK (Nanosyn)
BTK [2] = target: T1, BTK; experiment: BTK degradation in Mino cells, dose-response Western blot; format: cell-based; design: endogenous in cells; host or cells: Mino (ATCC CRL-3000), Ramos (ATCC CRL-1596), K562 (NCI-60); details: MINO, 24 h, read-out: Dmax (maximal degradation)
Experimental: We evaluated the ability of the compounds to induce degradation of BTK in human cell lines. We incubated Mino cells with the compounds and followed BTK levels after 24 h by Western blot (Figure 2, Supporting Figure 2). […] The irreversible acrylamides IR-1 and IR-2 and the cyanoacrylamide RC-3 followed closely with DC50’s under 10 nM and Dmax near 90%. […] We conducted metabolomics studies to estimate if cellular penetration and stability may contribute to the relative potencies (Supporting Table 2). NC-1 and RC-3 reached an effective concentration that was ∼2 times higher than IR-2 and ∼10 times higher than RC-2. Therefore, the lower potency of RC-2 can at least in part be explained by lower permeability or stability.
Figure 2 Efficient BTK degradation in cells. (A) Western blot evaluation of BTK levels in Mino cells in response to various concentrations of RC-2, IR-2, NC-1, and RC-3, after 24 h of incubation. (B) Quantification of BTK levels in (A) by normalization to the β-actin house-keeping gene in Mino cells. DC50 and Dmax were calculated by fitting the data to a second-order polynomial using Prism software. (C) Summary of the DC50 and Dmax values for the PROTACs in Mino cells described in (A) and Supporting Figure 2. TEXT PRINTED IN THE PICTURE: (C) NC-1: DC50 (nM): 2.2; Dmax (%): 97 | (C) IR-1: DC50 (nM): 8.6; Dmax (%): 91 | (C) IR-2: DC50 (nM): 1.9; Dmax (%): 88 | (C) RC-1: DC50 (nM): 10; Dmax (%): 68 | (C) RC-2: DC50 (nM): 35; Dmax (%): 66 | (C) RC-3: DC50 (nM): 6; Dmax (%): 85
(§1) Ramos (ATCC, CRL-1596), Mino (ATCC, CRL-3000), or K562 (NCI-60) cell lines were counted and diluted to 10^6 cell/mL, using 1 mL per well in a 24-well plate, and U2OS (ATCC HTB-96) cells overexpressing human BTK WT or C481S mutant were grown using 2 mL in a six-well plate (see Supporting Information). Cells were incubated with 1% DMSO or compound in indicated concentrations for 24 h unless indicated differently, or cells were left untreated. Lysates were prepared as previously described,[29] and samples were measured for total protein quantification by bicinchoninic acid (BCA) assay (#23225 ThermoFisher Scientific) supplemented with 4× loading buffer including 20 mM DTT, heated to 70 °C for 10 min, loaded into 4% SDS-PAGE gel, run for 45 min at 140 mV, then transferred into a nitrocellulose membrane (Biorad) using a Trans-Blot Turbo transfer system (Biorad). The membrane was stained with Ponceau (Sigma) to validate transfer for 10 min in gentle agitation then destained for 1 h with MQ water. The membrane was blocked with Licor blocking buffer (LIC927-70001) for 1 h, washed three times for 5 min with TBS-T, incubated with primary antibody BTK (D3H5) rabbit mAb (CST; 8547 S) overnight (16 h) at 4 °C, washed three times for 5 min with TBS-T, and incubated with primary antibody against β-actin (CST; 3700) for 1 h at 25 °C. Membrane was washed three times for 5 min with TBS-T, incubated with fluorescent secondary antibodies anti-mouse IgG Alexa Fluor 647 (CST: 4410S) and anti-rabbit-IgG IRDye 800(LICOR: 926-32211) for 1 h, then washed three times for 5 min with TBS-T, dried, and immediately imaged and analyzed using Licor Odyssey CLx. Prism (GraphPad) software was used to calculate degradation levels. We used second-order polynomial fits to estimate DC50 and Dmax values.

BTK [3] = target: T1, BTK; experiment: Time course of BTK degradation in Ramos and Mino cells; format: cell-based; design: endogenous in cells; host or cells: Mino (ATCC CRL-3000), Ramos (ATCC CRL-1596), K562 (NCI-60); details: 100 nM PROTAC, Ramos cells (RC-3: Mino cells)
Experimental: We followed the rate of BTK degradation facilitated by this compound series via a time course experiment in Ramos and Mino cells (Supporting Figure 3). The rates of degradation correlated well with the DC50 values observed after 24 h, with NC-1, IR-1, IR-2, and RC-3 degrading BTK within 2–4 h, while RC-2 and RC-1 required 6–24 h to reach maximum degradation.
as §1
Supplementary Figure 3: BTK degradation time dependency.
Ramos (PI3I, RC-1, I R-1, R C-2, I R-2, NC-1) or Mino ( RC-3) cells were treated with 100 nM of PROTAC or DMSO for indicated times, subsequently harvested for BTK levels measurement via western blot.
(1 picture or pasted object on this page, not shown here)

BTK [4] = target: T1, BTK; experiment: Mechanism validation: pretreatment with ibrutinib, thalidomide-OH or bortezomib before PROTAC in Mino cells; format: cell-based; design: endogenous in cells; host or cells: Mino (ATCC CRL-3000), Ramos (ATCC CRL-1596), K562 (NCI-60)

T1 sequence (Q06187 whole entry): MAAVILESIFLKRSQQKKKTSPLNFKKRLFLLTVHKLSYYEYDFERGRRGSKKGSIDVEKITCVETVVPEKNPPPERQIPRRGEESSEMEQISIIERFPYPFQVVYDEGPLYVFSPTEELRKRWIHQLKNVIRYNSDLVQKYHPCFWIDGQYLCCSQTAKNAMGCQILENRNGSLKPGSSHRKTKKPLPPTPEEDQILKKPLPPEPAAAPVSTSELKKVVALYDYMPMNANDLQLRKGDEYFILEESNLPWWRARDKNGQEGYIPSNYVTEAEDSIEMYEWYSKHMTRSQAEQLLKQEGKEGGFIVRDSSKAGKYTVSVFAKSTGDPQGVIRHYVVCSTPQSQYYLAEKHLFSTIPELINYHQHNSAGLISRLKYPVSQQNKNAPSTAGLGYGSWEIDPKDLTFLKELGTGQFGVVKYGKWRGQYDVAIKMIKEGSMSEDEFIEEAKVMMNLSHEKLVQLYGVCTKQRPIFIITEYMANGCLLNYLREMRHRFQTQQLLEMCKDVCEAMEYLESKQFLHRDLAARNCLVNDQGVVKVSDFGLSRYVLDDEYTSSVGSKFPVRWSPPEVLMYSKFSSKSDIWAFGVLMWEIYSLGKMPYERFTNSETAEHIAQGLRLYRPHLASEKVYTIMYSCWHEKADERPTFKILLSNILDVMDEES
Sequence of wild-type BTK (Q06187 whole entry, species assumed): as the sequence (Q06187 whole entry) above

IC50 (wild-type BTK): 12 nM
Dmax (BTK [2]): 68%
time to degrade BTK / reach maximum degradation (BTK [3]): 6 to 24 h
SMILES: N#CC(=CCOCCOCCOCCOCCOCCOc1cccc2c1C(=O)N(C1CCC(=O)NC1=O)C2=O)C(=O)N1CCCC(n2nc(-c3ccc(Oc4ccccc4)cc3)c3c(N)ncnc32)C1 (stereo not drawn) [RC-1]
BTK degradation (abundance of BTK by Western blot) (BTK [1]): consistent prominent levels of degradation in both cell lines

effect of proteasome inhibitor on PROTAC-mediated BTK degradation (BTK [4]; 1 h bortezomib, then PROTAC 4 h): significantly inhibited degradation
SMILES: CC(C)C[C@H](NC(=O)[C@H](Cc1ccccc1)NC(=O)c1cnccn1)B(O)O [bortezomib]

effect of pretreatment on PROTAC-mediated BTK degradation (BTK [4]; 2 h pretreatment, then PROTAC 24 h): hindered BTK degradation
SMILES: O=C1CCC(N2C(=O)c3cccc(O)c3C2=O)C(=O)N1 (stereo not drawn) [thalidomide-OH]

From paper PMC7349657, “Efficient Targeted Degradation via Reversible and Irreversible Covalent PROTACs” (Journal of the American Chemical Society, 2020)
